Results: patent publication US8895744B2, “Alfa-carboline inhibitors of NPM-ALK, RET, and Bcr-Abl” (Universita' Degli Studi di Milano-Bicocca, priority 2008, dated 2014)
Like-named read-outs stand apart in the source and are kept apart here.

What was measured:
Recombinant ALK kinase = target: T1, Recombinant ALK kinase (Homo sapiens, UniProt Q9UM73); assay: ALK kinase inhibitory activity, ELISA-based in vitro kinase assay; format: biochemical
T1 construct: made in house; host or cells: Sf9 insect cells (baculovirus)
T1 sequence (Q9UM73 19-1620): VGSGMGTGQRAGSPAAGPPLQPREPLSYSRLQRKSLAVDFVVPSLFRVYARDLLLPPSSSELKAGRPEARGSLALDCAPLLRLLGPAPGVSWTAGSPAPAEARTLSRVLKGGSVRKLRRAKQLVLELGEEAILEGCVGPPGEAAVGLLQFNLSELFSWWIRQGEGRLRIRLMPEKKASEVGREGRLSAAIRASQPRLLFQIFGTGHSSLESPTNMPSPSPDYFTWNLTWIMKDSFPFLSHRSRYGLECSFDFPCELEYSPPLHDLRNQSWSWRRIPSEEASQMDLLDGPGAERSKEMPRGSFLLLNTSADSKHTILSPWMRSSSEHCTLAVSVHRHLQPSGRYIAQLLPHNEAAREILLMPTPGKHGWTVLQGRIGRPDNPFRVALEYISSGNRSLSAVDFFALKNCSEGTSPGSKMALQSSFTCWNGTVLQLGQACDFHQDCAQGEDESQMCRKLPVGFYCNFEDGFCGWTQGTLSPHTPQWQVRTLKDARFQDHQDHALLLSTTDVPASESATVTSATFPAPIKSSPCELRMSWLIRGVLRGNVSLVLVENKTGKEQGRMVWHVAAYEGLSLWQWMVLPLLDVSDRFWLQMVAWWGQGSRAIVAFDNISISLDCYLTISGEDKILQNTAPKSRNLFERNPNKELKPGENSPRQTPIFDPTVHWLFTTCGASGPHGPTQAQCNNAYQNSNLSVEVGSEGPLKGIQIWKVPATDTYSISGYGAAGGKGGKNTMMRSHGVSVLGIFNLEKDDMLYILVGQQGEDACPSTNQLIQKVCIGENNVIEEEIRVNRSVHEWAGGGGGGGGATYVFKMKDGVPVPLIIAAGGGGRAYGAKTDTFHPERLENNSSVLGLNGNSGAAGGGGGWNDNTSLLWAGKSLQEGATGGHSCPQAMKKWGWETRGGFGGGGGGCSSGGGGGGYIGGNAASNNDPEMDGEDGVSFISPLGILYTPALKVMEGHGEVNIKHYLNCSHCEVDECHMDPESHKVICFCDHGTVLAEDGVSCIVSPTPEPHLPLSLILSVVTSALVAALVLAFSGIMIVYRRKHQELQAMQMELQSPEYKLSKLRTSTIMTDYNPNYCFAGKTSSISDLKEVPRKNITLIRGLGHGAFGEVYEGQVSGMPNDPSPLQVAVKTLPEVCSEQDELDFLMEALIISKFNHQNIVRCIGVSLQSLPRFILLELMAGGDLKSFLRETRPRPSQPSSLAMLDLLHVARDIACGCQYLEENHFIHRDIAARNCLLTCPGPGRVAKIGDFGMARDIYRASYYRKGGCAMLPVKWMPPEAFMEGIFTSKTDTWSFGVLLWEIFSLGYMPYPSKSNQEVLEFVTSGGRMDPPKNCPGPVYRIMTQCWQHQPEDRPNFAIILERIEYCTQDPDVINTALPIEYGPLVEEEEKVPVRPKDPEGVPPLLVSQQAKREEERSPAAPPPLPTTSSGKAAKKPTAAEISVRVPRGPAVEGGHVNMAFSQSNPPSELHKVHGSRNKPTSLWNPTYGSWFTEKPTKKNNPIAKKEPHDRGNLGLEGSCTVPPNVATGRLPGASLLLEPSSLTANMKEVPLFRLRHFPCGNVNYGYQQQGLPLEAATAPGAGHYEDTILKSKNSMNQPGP
Procedure, shortened: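 Sf9-expressed, purified recombinant ALK phosphorylated a plate-coated peptide substrate with 0.3 mM ATP, Mn2+/Mg2+, pH 7.5, 15 min at 30° C, after 10 min inhibitor preincubation. Phosphotyrosine was detected by anti-pTyr ELISA (TMB, A450); IC50 in μM is the concentration giving 50% inhibition relative to control.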

[1] = target: T2, Recombinant Abl T315I protein (Homo sapiens, UniProt P00519, T315I); assay: Abl T315I mutant kinase inhibitory activity, ELISA-based in vitro kinase assay; format: biochemical; settings: purified Abl T315I, 0.3 mM ATP
T2 construct: made in house; host or cells: Sf9 cells (baculovirus)
Procedure, shortened: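 His-tagged human Abl T315I from Sf9 cells, preincubated 10 min at room temperature with inhibitor, then reacted on peptide-coated plates with 0.3 mM ATP, 1 mM MnCl2, 5 mM MgCl2 in 50 mM Tris pH 7.5. Phosphotyrosine detected by anti-pTyr/HRP ELISA at 450 nm; IC50 as 50% inhibition vs control.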

Recombinant Ret protein = target: T3, Recombinant Ret protein (Homo sapiens, UniProt P07949); assay: RET kinase inhibitory activity, ELISA-based in vitro kinase assay; format: biochemical; settings: purified Ret, 0.3 mM ATP
T3 construct: made in house; host or cells: Sf9 cells (baculovirus)
T3 sequence (P07949 29-1114): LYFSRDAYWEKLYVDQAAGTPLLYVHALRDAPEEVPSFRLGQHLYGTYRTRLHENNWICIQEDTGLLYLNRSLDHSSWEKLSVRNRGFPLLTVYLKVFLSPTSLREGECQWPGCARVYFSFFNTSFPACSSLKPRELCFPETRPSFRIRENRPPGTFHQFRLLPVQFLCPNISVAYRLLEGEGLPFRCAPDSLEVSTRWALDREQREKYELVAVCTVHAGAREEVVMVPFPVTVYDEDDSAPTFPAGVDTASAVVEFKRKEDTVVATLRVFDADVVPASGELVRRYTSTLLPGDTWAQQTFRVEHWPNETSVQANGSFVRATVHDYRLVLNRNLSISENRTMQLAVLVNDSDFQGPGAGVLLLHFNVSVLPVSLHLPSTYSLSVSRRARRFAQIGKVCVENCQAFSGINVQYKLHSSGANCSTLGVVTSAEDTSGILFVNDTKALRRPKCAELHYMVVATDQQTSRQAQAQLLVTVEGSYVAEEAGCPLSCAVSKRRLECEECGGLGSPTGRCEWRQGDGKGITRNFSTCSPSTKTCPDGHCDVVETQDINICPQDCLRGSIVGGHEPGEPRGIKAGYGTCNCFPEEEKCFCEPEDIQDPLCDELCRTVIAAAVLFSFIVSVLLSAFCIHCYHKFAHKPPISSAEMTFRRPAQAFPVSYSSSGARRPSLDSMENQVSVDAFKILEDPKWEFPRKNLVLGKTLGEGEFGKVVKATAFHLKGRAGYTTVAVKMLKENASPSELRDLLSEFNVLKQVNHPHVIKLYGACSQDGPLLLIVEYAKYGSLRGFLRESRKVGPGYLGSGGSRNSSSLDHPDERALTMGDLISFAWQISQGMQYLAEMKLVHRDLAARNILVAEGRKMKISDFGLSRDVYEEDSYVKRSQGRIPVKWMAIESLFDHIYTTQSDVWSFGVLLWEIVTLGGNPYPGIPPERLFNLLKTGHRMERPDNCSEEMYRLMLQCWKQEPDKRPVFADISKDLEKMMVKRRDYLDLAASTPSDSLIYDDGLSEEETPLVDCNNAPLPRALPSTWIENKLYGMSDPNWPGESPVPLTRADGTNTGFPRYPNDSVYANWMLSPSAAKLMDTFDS
Experimental: Recombinant ALK kinase was expressed in Sf9 insect cells using the pBlueBacHis2C baculovirus vector system and purified using an anion exchange Fast Flow Q-sepharose column (Amersham-Pharmacia Biotech) followed by HiTrap™-nickel affinity column (Amersham-Pharmacia Biotech). Purified ALK protein was used to screen inhibitors in the ELISA-based kinase assay. A Nunc Immuno 96 well plate was incubated overnight at 37° C. with coating solution (125 μL/well) containing ALK peptide substrate ([…]) (SEQ ID NO: 1) at various concentrations in PBS. Wells were then washed with 200 μL of wash buffer (PBS-Tween 0.05%) and left to dry for at least 2 h at 37° C. The kinase reaction was performed in the presence of 50 mM Tris pH 7.5, 5 mM MnCl2, 5 mM MgCl2, 0.3 mM ATP and purified rALK in a total volume of 100 μL/well at 30° C. for 15 min. For inhibitor testing the reaction mix was preincubated with the inhibitor or solvent control for 10 min at room temperature before transferring to the ELISA plate. After the reaction wells were washed 5 times with 200 μL of wash buffer. Phosphorylated peptide was detected using 100 μL/well of a mouse monoclonal anti-phosphotyrosine antibody (clone 4G10 Upstate Biotech Ltd) diluted 1:2000 in PBS+4% BSA. After 30 min incubation at room temperature the antibody was removed and wells were washed as described above. 100 μL of a secondary antibody (anti-mouse IgG, Horseradish Peroxidase linked whole antibody, Amersham Pharmacia Biotech) diluted 1:1000 in PBS+4% BSA was added to each well and the plate was incubated again for 30 min at room temperature before washing as above. The plate was developed using 100 μL/well TMB Substrate Solution (Endogen) and the reaction was stopped by adding an equiv.ual volume of H2SO4 0.36 M. Finally, the absorbance was read at 450 nm using an Ultrospec® 300 spectrophotometer (Amersham-Pharmacia Biotech). The concentration of the test solution showing 50% inhibition as compared with the control was expressed as IC50 (μM).
38. RET Kinase Inhibitory Activity
Method: ELISA-Based In Vitro Kinase Assay
Recombinant Ret protein was expressed in Sf9 cells using the pBlueBacHis2C baculovirus expression vector. Ret was purified using an anion exchange Fast Flow Q-sepharose column (Amersham-Pharmacia Biotech) followed by HiTrap™-nickel affinity column (Amersham-Pharmacia Biotech). Purified Ret was used in the ELISA-based kinase assay to screen inhibitors as described above. The kinase reaction was performed in the presence of 50 mM Tris pH 7.5, 1 mM MnCl2, 5 mM MgCl2, 0.3 mM ATP, peptide substrate ([…]) (SEQ ID NO: 1) and purified Ret. The concentration of the test solution showing 50% inhibition as compared with the control was expressed as IC50 (μM).

[2] = tested on: parent untransformed BaF3 cells; assay: Tritiated thymidine uptake cell proliferation assay, parental BaF3 (control); format: cell-based; settings: Mus musculus, 3[H]-thymidine uptake, 72 h, medium with IL-3, read-out: BaF parental IC50
Procedure, shortened: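 Control lines were parental BaF3 in IL-3-supplemented medium and ALK-, Abl- or RET-negative U937, seeded at 10 000 cells/well with serial inhibitor dilutions for 72 h at 37 °C. ³H-thymidine (1 μCi/well) was added for the final 16 h; IC50 (μM) is the concentration halving uptake versus DMSO.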

[3] = target: T4, BaF3 cells transformed with the oncogenic fusion protein NPM/ALK (Homo sapiens, UniProt Q9UM73); assay: Tritiated thymidine uptake cell proliferation assay, BaF3 NPM/ALK; format: cell-based; settings: 3[H]-thymidine uptake, 72 h; read-out: BaF NPM/ALK IC50
T4 construct: fused on or other part: P06748 (Nucleophosmin)
T4 sequence (Q9UM73 whole entry, change not shown, the tested form may be a part): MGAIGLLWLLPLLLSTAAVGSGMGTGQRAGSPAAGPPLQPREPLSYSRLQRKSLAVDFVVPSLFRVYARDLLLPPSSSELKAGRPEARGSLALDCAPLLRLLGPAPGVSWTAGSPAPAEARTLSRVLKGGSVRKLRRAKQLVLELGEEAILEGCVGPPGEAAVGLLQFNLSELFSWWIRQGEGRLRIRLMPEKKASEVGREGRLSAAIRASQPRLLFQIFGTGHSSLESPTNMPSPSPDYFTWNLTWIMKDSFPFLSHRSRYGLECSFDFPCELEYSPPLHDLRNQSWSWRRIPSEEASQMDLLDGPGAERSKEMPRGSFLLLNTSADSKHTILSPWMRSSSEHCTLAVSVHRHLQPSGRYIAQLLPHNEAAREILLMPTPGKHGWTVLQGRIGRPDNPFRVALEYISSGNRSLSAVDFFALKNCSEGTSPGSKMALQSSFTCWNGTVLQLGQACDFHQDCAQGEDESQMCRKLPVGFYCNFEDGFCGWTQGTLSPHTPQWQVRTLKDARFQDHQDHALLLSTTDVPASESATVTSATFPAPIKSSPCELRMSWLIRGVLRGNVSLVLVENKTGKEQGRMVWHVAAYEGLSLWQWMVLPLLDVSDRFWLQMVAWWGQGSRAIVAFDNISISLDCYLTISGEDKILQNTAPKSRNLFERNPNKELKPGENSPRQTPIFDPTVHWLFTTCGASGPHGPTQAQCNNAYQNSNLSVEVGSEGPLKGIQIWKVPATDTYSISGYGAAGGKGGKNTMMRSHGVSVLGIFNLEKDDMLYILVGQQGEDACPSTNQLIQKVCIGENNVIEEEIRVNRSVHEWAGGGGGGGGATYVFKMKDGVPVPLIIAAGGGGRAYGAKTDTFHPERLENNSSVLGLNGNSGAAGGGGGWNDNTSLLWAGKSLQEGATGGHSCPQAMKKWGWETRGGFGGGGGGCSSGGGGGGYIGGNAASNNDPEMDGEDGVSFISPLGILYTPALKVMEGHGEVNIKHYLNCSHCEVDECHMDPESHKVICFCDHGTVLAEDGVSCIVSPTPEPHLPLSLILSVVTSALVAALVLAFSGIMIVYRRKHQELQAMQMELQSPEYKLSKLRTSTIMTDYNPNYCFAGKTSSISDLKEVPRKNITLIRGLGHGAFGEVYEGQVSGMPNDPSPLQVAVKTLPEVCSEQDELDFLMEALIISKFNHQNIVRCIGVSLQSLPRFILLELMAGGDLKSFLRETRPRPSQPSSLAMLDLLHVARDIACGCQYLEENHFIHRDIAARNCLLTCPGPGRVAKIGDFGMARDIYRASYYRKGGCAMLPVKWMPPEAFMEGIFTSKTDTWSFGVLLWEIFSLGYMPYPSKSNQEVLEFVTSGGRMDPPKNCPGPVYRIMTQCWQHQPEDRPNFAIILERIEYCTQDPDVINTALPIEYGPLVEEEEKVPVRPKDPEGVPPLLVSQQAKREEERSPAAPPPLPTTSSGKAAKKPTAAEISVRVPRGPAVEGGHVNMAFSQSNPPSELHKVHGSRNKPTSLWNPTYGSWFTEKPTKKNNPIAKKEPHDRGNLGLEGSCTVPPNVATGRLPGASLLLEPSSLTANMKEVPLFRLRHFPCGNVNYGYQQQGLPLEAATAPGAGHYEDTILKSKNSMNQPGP
Procedure, shortened: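 Cells were seeded at 10 000/well with serial inhibitor dilutions or DMSO vehicle and incubated 72 h at 37 °C, with ^3[H]-thymidine (1 μCi/well) added for the final 16 h. Incorporation was read by β scintillation counting. IC50 (μM) is the concentration giving a 50% decrease in uptake versus controls.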

[4] = tested on: NPM/ALK positive SUDHL-1 cells; assay: Tritiated thymidine uptake cell proliferation assay, SUDHL-1; format: cell-based; settings: 3[H]-thymidine uptake, 72 h
Experimental: Inhibition of the proliferation of NPM/ALK positive cells
(§1) Method: Tritiated Thymidine Uptake Cell Proliferation Assay
(§2) The following procedure was used with parent untransformed BaF3 cells, BaF3 cells transformed with the oncogenic fusion protein NPM/ALK, NPM/ALK positive SUDHL-1 cells, ALK-negative U937 cells, NPM/ALK positive KARPAS-299 cells. The parent untransformed BaF3 cells and Alk-negative U937 cells are used as controls. Cells were seeded in U-bottomed 96-well plates at 10 000 cells/well in a volume of 100 μL in supplemented medium. In the case of the parent untransformed BaF3 cells, the medium was supplemented with IL-3. Serial dilutions of inhibitors were added to the appropriate wells and volumes adjusted to 200 μL. Controls were treated with the equivalent volume of vehicle, DMSO, alone. Plates were incubated at 37° C. for 72 h. ^3[H]-thymidine (1 μCi/well) was added for the last 16 h of incubation. Cells were harvested on to paper filters and ^3[H]-thymidine incorporation was measured using a β scintillation counter (1430 MicroBeta, Wallac, Turku, Finland). The 50% inhibitory concentration (IC50) was defined as the concentration of inhibitor, expressed in micromolar, that gave a 50% decrease in ^3[H]-thymidine uptake compared with controls.

ALK-negative U937 cells = assay: Tritiated thymidine uptake cell proliferation assay, U937 (control); format: cell-based; settings: Homo sapiens, U-937; 3[H]-thymidine uptake, 72 h
Experimental: as §1
as §2, with “with controls. […]” for “with controls.”
as §2, with “RET-PTC2, or RET-negative 11937” for “NPM/ALK, NPM/ALK positive SUDHL-1 cells, ALK-negative U937 cells, NPM/ALK positive KARPAS-299”, “RET-negative” for “Alk-negative”

[5] = purified rALK, 0.3 mM ATP, read-out: ALK IC50

O=C(CSc1ccccc1)c1ccc2[nH]c3ncc(Cl)cc3c2c1 [R275, 1-(3-Chloro-9H-pyrido[2,3-b]indol-6-yl)-2-phenylsulfanylethanone]
IC50 (Recombinant ALK kinase; [5]): 20 ± 0.6 µM
IC50 [1]: > 100 µM
IC50 (Recombinant Ret protein): 27 µM
IC50 [2]: 2 µM
GI50 [3]: 8 µM
IC50 [4]: > 25 µM

COc1ccc(-c2cnc3[nH]c4ccccc4c3c2)cc1 [R278, 3-(4-methoxyphenyl)-9H-pyrido[2,3-b]indole]
IC50 (Recombinant ALK kinase; [5]): 1.2 ± 0.2 µM
IC50 [1]: 23 µM
IC50 (Recombinant Ret protein): 1 µM
IC50 [2]: > 50 µM
GI50 [3]: > 50 µM
melting point: > 220 °C

C(=C\c1cnc2[nH]c3ccccc3c2c1)/c1ccccc1 [R281, 3-(2′-phenylethenyl)-9H-pyrido[2,3-b]indole]
IC50 (Recombinant ALK kinase; [5]): 0.5 ± 0.3 µM
IC50 [1]: 1.8 µM
IC50 (Recombinant Ret protein): 1.1 µM
IC50 [2]: > 100 µM
GI50 [3]: > 100 µM
IC50 [4]: > 100 µM

COc1ccc(-c2ccc3c(n2)[nH]c2ccccc23)cc1 [R299, 2-(4-methoxyphenyl)-9H-pyrido[2,3-b]indole]
IC50 (Recombinant ALK kinase; [5]): 2.1 ± 0.5 µM
IC50 [1]: > 100 µM
IC50 (Recombinant Ret protein): 4.1 µM
IC50 [2]: > 100 µM
GI50 [3]: > 100 µM
IC50 [4]: 59 µM

O=[N+]([O-])c1ccccc1Nc1ccnc2[nH]c3ccccc3c12 [R323, N-(2-nitrophenyl)-9H-pyrido[2,3-b]indol-4-amine]
IC50 (Recombinant ALK kinase; [5]): 23 ± 12 µM
IC50 [2]: > 100 µM
GI50 [3]: 0.21 ± 0.01 µM
IC50 [4]: > 100 µM
IC50 (ALK-negative U937 cells): 13 µM

O=[N+]([O-])c1ccccc1Nc1ccc2c(n1)[nH]c1ccc(/C=C/c3ccccc3)cc12 [R332, N-(2-nitrophenyl)-6-(2′-phenylethenyl)-9H-pyrido[2,3-b]indol-2-amine]
IC50 (Recombinant ALK kinase; [5]): 13 ± 2 µM
IC50 [2]: 20 ± 1 µM
GI50 [3]: 3 ± 0.8 µM
IC50 [4]: 3.6 µM
IC50 (ALK-negative U937 cells): 1.9 µM

CCN(CC)CCCOc1ccc(-c2ccc3[nH]c4ncc(Cl)cc4c3c2)cc1 [R337, 3-(4-(3-chloro-9H-pyrido[2,3-b]indol-6-yl)phenoxy)-N,N-diethylpropan-1-amine]
IC50 (Recombinant ALK kinase; [5]): 31 ± 9 µM
IC50 [2]: 2.6 µM
GI50 [3]: 2.5 µM
IC50 [4]: 2.4 µM
IC50 (ALK-negative U937 cells): 1.1 µM

CCN(CC)CCCOc1ccc(-c2ccc3[nH]c4ncc(/C=C/c5ccccc5)cc4c3c2)cc1 [R338, N,N-diethyl-3-(4-(3-(2′-phenylethenyl)-9H-pyrido[2,3-b]indol-6-yl)phenoxy)propan-1-amine]
IC50 [2]: 0.4 µM
GI50 [3]: 0.5 µM
IC50 [4]: 0.4 µM
IC50 (ALK-negative U937 cells): 0.4 µM

CCN(CC)CCCOc1ccc(-c2ccc3[nH]c4ncc(C=Cc5ccccc5)cc4c3c2)cc1 [R340]
IC50 (Recombinant ALK kinase; [5]): 7 ± 1.5 µM
IC50 [2]: 1 µM
GI50 [3]: 1.2 µM
IC50 [4]: 0.7 µM
IC50 (ALK-negative U937 cells): 0.5 µM

CCCC#Cc1ccc2c(n1)[nH]c1ccccc12 [R341, 2-(pent-1-ynyl)-9H-pyrido[2,3-b]indole]
IC50 (Recombinant ALK kinase; [5]): 11 ± 0.1 µM
IC50 [2]: 70 µM
GI50 [3]: 74 µM
IC50 [4]: 48 µM
IC50 (ALK-negative U937 cells): 17 µM

C(#Cc1ccc2c(n1)[nH]c1ccccc12)c1ccccc1 [R342, 2-(phenylethynyl)-9H-pyrido[2,3-b]indole]
IC50 [2]: > 100 µM
GI50 [3]: > 180 µM
IC50 [4]: 21 µM
IC50 (ALK-negative U937 cells): 33 µM

CN1CCN(CCOc2ccc(-c3ccc4[nH]c5ncc(Cl)cc5c4c3)cc2)CC1 [R347, 3-chloro-6-(4-(2-(4-methylpiperazin-1-yl)ethoxy)phenyl)-9H-pyrido[2,3-b]indole]
IC50 (Recombinant ALK kinase; [5]): 7.8 ± 0.9 µM
IC50 [2]: 2.4 µM
GI50 [3]: 2.5 µM
IC50 [4]: 2.6 µM
IC50 (ALK-negative U937 cells): 4.6 µM

COc1ccc(/C=C/c2ccc3[nH]c4ncc(Cl)cc4c3c2)cc1 [R350, (E)-3-chloro-6-(2′-(4-methoxyphenyl)ethenyl)-9H-pyrido[2,3-b]indole]
IC50 (Recombinant ALK kinase; repeated determinations, 1st, read-out: ALK IC50, 1st determination): 5.1 µM
IC50 (Recombinant ALK kinase; repeated determinations, 2nd or 'then', read-out: ALK IC50, 2nd / subsequent determination): 35 µM
ALK IC50, 3rd determination (Recombinant ALK kinase; repeated determinations, 3rd): inactive
IC50 [2]: > 100 µM
GI50 [3]: > 100 µM
IC50 [4]: > 100 µM
IC50 (ALK-negative U937 cells): > 100 µM
